From patent US20240383904A1, “HETEROCYCLIC COMPOUNDS” (Hoffmann-La Roche Inc., priority 2021, published 2024)

Molecular target: T1, MAGL (Homo sapiens, UniProt Q99685)
T1 sequence (Q99685 1-303): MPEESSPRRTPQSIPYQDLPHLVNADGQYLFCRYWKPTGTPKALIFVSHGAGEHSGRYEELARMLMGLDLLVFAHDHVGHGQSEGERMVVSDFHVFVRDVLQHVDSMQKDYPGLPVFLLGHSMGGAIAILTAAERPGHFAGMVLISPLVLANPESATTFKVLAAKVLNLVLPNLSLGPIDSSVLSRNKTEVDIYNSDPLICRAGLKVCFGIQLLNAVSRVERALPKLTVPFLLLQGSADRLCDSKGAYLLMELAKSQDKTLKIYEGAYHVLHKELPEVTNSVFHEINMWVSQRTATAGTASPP
Assay: 2-AG assay: MAGL inhibitory activity by hydrolysis of 2-arachidonoylglycerol to arachidonic acid, followed by mass spectrometry
Format: biochemical
Details: 15 min preincubation, 30 min reaction at RT, 8 μM 2-arachidonoylglycerol

| IC50 [nM] | SMILES |
| --- | --- |
| 24.6 | O=C1CCC2(CN(C(=O)N3CC4(CC(Cn5cnc(C6(C(F)(F)F)CC6)n5)C4)C3)C2)N1 [Example 330, 2-[6-[[3-[1-(trifluoromethyl)cyclopro-pyl]-1,2,4-triazol-1-yl]methyl]-2-azaspiro[3.3]heptane-2-carbonyl]-2,5-diazaspiro[3.4]octan-6-one] |
| 45.2 | CC(C)(C)c1ncc(CN2CC3(C2)CN(C(=O)N2CC4(CCC(=O)N4)C2)C3)s1 [Example 331, 2-[6-[(2-tert-butylthiazol-5-yl)methyl]-2,6-diazaspiro[3.3]heptane-2-carbonyl]-2,5-diazaspiro[3.4]octan-6-one] |
| 52.7 | O=C1CCC2(CN(C(=O)N3CC4(CCN(Cc5cc(C(F)(F)F)sn5)CC4)C3)C2)N1 [Example 332, 2-[7-[[5-(trifluoromethyl)isothia-zol-3-yl]methyl]-2,7-diazaspiro[3.5]nonane-2-carbonyl]-2,5-diazaspiro[3.4]octan-6-one] |
| 88.1 | O=C1CCC2(CN(C(=O)N3CC4(CC(Cc5n[nH]c(C(F)(F)F)n5)C4)C3)C2)N1 [Example 333, 2-[6-[[5-(trifluoromethyl)-1H-1,2,4-triazol-3-yl]methyl]-2-azaspiro[3.3]heptane-2-carbonyl]-2,5-diazaspiro[3.4]octan-6-one] |
| 88.2 | O=C1CCC2(CN(C(=O)N3CC4(CN(Cc5snnc5C5CCC5)C4)C3)C2)N1 [Example 334, 2-[6-[(4-cyclobutylthiadiazol-5-yl)methyl]-2,6-diazaspiro[3.3]heptane-2-carbonyl]-2,5-diazaspiro[3.4]octan-6-one] |
| 101 | N=S(=O)(c1ccc(OC2CC3(C2)CN(C(=O)N2CC4(CCC(=O)N4)C2)C3)cc1)C(F)(F)F (stereo not drawn) [Example 335] |
| 146 | CP(C)(=O)c1ccc(CC2CC3(C2)CN(C(=O)N2CC4(CCC(=O)N4)C2)C3)c(F)c1 [Example 336, 2-[6-(4-dimethylphosphoryl-2-fluoro-benzyl)-2-azaspiro[3.3]heptane-2-carbonyl]-2,5-diazaspiro[3.4]octan-6-one] |
| 160 | Cn1nc(C(F)(F)F)cc1CN1CCC2(CC1)CN(C(=O)N1CC3(CCC(=O)N3)C1)C2 [Example 337, 2-[7-[[2-methyl-5-(trifluoromethyl)pyrazol-3-yl]methyl]-2,7-diazaspiro[3.5]nonane-2-carbonyl]-2,5-diazaspiro[3.4]octan-6-one] |
| 178 | O=C1CCC2(CN(C(=O)N3CC4(CCN(Cc5cc(C(F)(F)F)on5)CC4)C3)C2)N1 [Example 338, 2-[7-[[5-(trifluoromethyl)isoxazol-3-yl]methyl]-2,7-diazaspiro[3.5]nonane-2-carbonyl]-2,5-diazaspiro[3.4]octan-6-one] |
| 215 | CP(C)(=O)c1cc(F)cc(CC2CC3(C2)CN(C(=O)N2CC4(CCC(=O)N4)C2)C3)c1 [Example 339, 2-[6-(3-dimethylphosphoryl-5-fluoro-benzyl)-2-azaspiro[3.3]heptane-2-carbonyl]-2,5-diazaspiro[3.4]octan-6-one] |
| 428 | O=C1CCC2(CN(C(=O)N3CC4(CN(Cc5nc(C6CC6)ns5)C4)C3)C2)N1 [Example 340, 2-[6-[(3-cyclopropyl-1,2,4-thiadiazol-5-yl)methyl]-2,6-diazaspiro[3.4]heptane-2-carbonyl]-2,5-diazaspiro[3.4]octan-6-one] |
| 730 | Cc1sc(CN2CC3(C2)CN(C(=O)N2CC4(CCC(=O)N4)C2)C3)nc1C(F)(F)F [Example 341, 2-[6-[[5-methyl-4-(trifluoromethyl)thiazol-2-yl]methyl]-2,6-diazaspiro[3.3]heptane-2-carbonyl]-2,5-diazaspiro[3.4]octan-6-one] |
| 1600 | O=C1CCC2(CN(C(=O)N3CC4(CN(Cc5nnc(C(F)(F)F)s5)C4)C3)C2)N1 [Example 342, 2-[6-[[5-(trifluoromethyl)-1,3,4-thiadiazol-2-yl]methyl]-2,6-diazaspiro[3.3]heptane-2-carbonyl]-2,5-diazaspiro[3.4]octan-6-one] |
| 1800 | Cc1nc(C(F)(F)F)c(CN2CC3(C2)CN(C(=O)N2CC4(CCC(=O)N4)C2)C3)s1 [Example 343, 2-[6-[[2-methyl-4-(trifluoromethyl)thiazol-5-yl]methyl]-2,6-diazaspiro[3.4]heptane-2-carbonyl]-2,5-diazaspiro[3.4]octan-6-one] |
| 2450 | Cn1cc(OC2CC3(C2)CN(C(=O)N2CC4(CCC(=O)N4)C2)C3)cn1 [Example 344, 2-[6-(1-methylpyrazol-4-yl)oxy-2-azaspiro[3.3]heptane-2-carbonyl]-2,5-diazaspiro[3.4]octan-6-one] |
| 3330 | O=C1CCC2(CN(C(=O)N3CC4(CN(Cc5snnc5C5CC5)C4)C3)C2)N1 [Example 345, 2-[6-[(4-cyclopropylthiadiazol-5-yl)methyl]-2,6-diazaspiro[3.3]heptane-2-carbonyl]-2,5-diazaspiro[3.4]octan-6-one] |
| 29.1 | Cc1cc(C(F)F)n(CC2CC3(C2)CN(C(=O)N2CC4(CCC(=O)N4)C2)C3)n1 [Example 346, 2-[6-[[5-(difluoromethyl)-3-methyl-pyrazol-1-yl]methyl]-2-azaspiro[3.3]heptane-2-carbonyl]-2,5-diazaspiro[3.4]octan-6-one] |

| IC50 [nM] | SMILES |
| --- | --- |
| 8.19 | Cc1cc(C(F)F)nn1CC1CC2(C1)CN(C(=O)N1CC3(CCC(=O)N3)C1)C2 [Example 347, 2-[6-[[3-(difluoromethyl)-5-methyl-pyrazol-1-yl]methyl]-2-azaspiro[3.3]heptane-2-carbonyl]-2,5-diazaspiro[3.4]octan-6-one] |
| 90.9 | O=C1CCC2(CN(C(=O)N3CC4(CCN(Cc5ncc(C(F)F)s5)CC4)C3)C2)N1 [Example 348, 2-[7-[[5-(difluoromethyl)thiazol-2-yl]methyl]-2,7-diazaspiro[3.5]nonane-2-carbonyl]-2,5-diazaspiro[3.4]octan-6-one] |
| 23 | O=C1CCC2(CN(C(=O)N3CC4(CC(Cc5nsc(C(F)(F)F)n5)C4)C3)C2)N1 [Example 349, 2-[6-[[5-(trifluoromethyl)-1,2,4-thiadiazol-3-yl]methyl]-2-azaspiro[3.3]heptane-2-carbonyl]-2,5-diazaspiro[3.4]octan-6-one] |
| 165 | O=C1CCC2(CN(C(=O)N3CC4(CCN(Cc5cc(C(F)(F)F)[nH]n5)CC4)C3)C2)N1 [Example 350, 2-[7-[[5-(trifluoromethyl)-1H-pyrazol-3-yl]methyl]-2,7-diazaspiro[3.5]nonane-2-carbonyl]-2,5-diazaspiro[3.4]octan-6-one] |
| 0.37 | O=C1NC2(CO1)CN(C(=O)N1CC3(CC(Cc4nc(C(F)(F)F)cs4)C3)C1)C2 [Example 351, 2-[6-[[4-(trifluoromethyl)thiazol-2-yl]methyl]-2-azaspiro[3.3]heptane-2-carbonyl]-7-oxa-2,5-diazaspiro[3.4]octan-6-one] |
| 0.15 | Cn1ncc(CC2CC3(C2)CN(C(=O)N2CC4(COC(=O)N4)C2)C3)c1C(F)(F)F [Example 352, 2-[6-[[1-methyl-5-(trifluoromethyl)pyrazol-4-yl]methyl]-2-azaspiro[3.3]heptane-2-carbonyl]-7-oxa-2,5-diazaspiro[3.4]octan-6-one] |
| 0.1 | N#Cc1ccc(CC2CC3(C2)CN(C(=O)N2CC4(COC(=O)N4)C2)C3)cc1C(F)(F)F [Example 353] |
| 0.28 | O=C1NC2(CO1)CN(C(=O)N1CC3(CC(Cc4ccc(C(F)(F)F)cn4)C3)C1)C2 [Example 354, 2-[6-[[5-(trifluoromethyl)-2-pyridyl]methyl]-2-azaspiro[3.3]heptane-2-carbonyl]-7-oxa-2,5-diazaspiro[3.4]octan-6-one] |
| 0.19 | O=C1NC2(CO1)CN(C(=O)N1CC3(CC(Cc4ccc(OC(F)(F)F)nc4)C3)C1)C2 [Example 355, 2-[6-[[6-(trifluoromethoxy)-3-pyridyl]methyl]-2-azaspiro[3.3]heptane-2-carbonyl]-7-oxa-2,5-diazaspiro[3.4]octan-6-one] |
| 0.2 | N=[S@](=O)(c1cccc(CC2CC3(C2)CN(C(=O)N2CC4(COC(=O)N4)C2)C3)c1)C(F)(F)F [Example 356, 2-[6-[3-(trifluoromethylsulfoni-midoyl)benzyl]-2-azaspiro[3.3]heptane-2-carbonyl]-7-oxa-2,5-diazaspiro[3.4]octan-6-one] |
| 0.15 | N=[S@@](=O)(c1cccc(CC2CC3(C2)CN(C(=O)N2CC4(COC(=O)N4)C2)C3)c1)C(F)(F)F [Example 357, 2-[6-[3-(trifluoromethylsulfoni-midoyl)benzyl]-2-azaspiro[3.3]heptane-2-carbonyl]-7-oxa-2,5-diazaspiro[3.4]octan-6-one] |
| 0.26 | N=[S@@](=O)(c1ccc(CC2CC3(C2)CN(C(=O)N2CC4(COC(=O)N4)C2)C3)cc1)C(F)(F)F [Example 358, 2-[6-[4-(trifluoromethylsulfoni-midoyl)benzyl]-2-azaspiro[3.3]heptane-2-carbonyl]-7-oxa-2,5-diazaspiro[3.4]octan-6-one] |
| 0.32 | N=[S@](=O)(c1ccc(CC2CC3(C2)CN(C(=O)N2CC4(COC(=O)N4)C2)C3)cc1)C(F)(F)F [Example 359] |
| 0.2 | O=C1CCC2(CN(C(=O)N3CC4(CC(Cc5cccc(S(=O)(=O)C(F)(F)F)c5)C4)C3)C2)N1 [Example 360, 2-[6-(3-triflylbenzyl)-2-azaspiro[3.3]heptane-2-carbonyl]-2,5-diazaspiro[3.4]octan-6-one] |
| 5.8 | O=C1CCC2(CN(C(=O)N3CC4(CN(Cc5ccc(C(F)(F)F)cc5F)C4)C3)C2)N1 [Example 361, 2-[6-[2-fluoro-4-(trifluoromethyl)benzyl]-2,6-diazaspiro[3.3]heptane-2-carbonyl]-2,5-diazaspiro[3.4]octan-6-one] |
| 78.2 | O=C1COCC2(CN(C(=O)N3CC4(CC(Cn5ncc(C(F)(F)F)n5)C4)C3)C2)N1 [Example 362, 2-[6-[[4-(trifluoromethyl)triazol-2-yl]methyl]-2-azaspiro[3.3]heptane-2-carbonyl]-8-oxa-2,5-diazaspiro[3.5]nonan-6-one] |
